Assay results from patent US9616051B2, “Drug targets to overcome de novo drug-resistance in multiple myeloma” (H. Lee Moffitt Cancer Center and Research Institute, Inc., priority 2008, dated 2017).
Read-outs that look alike come from different tables or passages of the source.

Key:
[1] = test system: high-density MM cells (H929); experiment: Cleaved caspase 3 apoptosis assay, sensitization to doxorubicin
topo IIα [2] = target: T1, topo IIα (Homo sapiens, UniProt P11388); experiment: Nuclear-cytoplasmic fractionation and Western blot for topo IIα; type: cell-based; conditions: high-density RPMI-H929 cells, 25 μM, FIG. 13 legend
T1 construct: effect on the intracellular location of topo IIα in treated MM cells; endogenous in cells; host or cells: human multiple myeloma cells NCI-H929
T1 sequence (P11388 whole entry): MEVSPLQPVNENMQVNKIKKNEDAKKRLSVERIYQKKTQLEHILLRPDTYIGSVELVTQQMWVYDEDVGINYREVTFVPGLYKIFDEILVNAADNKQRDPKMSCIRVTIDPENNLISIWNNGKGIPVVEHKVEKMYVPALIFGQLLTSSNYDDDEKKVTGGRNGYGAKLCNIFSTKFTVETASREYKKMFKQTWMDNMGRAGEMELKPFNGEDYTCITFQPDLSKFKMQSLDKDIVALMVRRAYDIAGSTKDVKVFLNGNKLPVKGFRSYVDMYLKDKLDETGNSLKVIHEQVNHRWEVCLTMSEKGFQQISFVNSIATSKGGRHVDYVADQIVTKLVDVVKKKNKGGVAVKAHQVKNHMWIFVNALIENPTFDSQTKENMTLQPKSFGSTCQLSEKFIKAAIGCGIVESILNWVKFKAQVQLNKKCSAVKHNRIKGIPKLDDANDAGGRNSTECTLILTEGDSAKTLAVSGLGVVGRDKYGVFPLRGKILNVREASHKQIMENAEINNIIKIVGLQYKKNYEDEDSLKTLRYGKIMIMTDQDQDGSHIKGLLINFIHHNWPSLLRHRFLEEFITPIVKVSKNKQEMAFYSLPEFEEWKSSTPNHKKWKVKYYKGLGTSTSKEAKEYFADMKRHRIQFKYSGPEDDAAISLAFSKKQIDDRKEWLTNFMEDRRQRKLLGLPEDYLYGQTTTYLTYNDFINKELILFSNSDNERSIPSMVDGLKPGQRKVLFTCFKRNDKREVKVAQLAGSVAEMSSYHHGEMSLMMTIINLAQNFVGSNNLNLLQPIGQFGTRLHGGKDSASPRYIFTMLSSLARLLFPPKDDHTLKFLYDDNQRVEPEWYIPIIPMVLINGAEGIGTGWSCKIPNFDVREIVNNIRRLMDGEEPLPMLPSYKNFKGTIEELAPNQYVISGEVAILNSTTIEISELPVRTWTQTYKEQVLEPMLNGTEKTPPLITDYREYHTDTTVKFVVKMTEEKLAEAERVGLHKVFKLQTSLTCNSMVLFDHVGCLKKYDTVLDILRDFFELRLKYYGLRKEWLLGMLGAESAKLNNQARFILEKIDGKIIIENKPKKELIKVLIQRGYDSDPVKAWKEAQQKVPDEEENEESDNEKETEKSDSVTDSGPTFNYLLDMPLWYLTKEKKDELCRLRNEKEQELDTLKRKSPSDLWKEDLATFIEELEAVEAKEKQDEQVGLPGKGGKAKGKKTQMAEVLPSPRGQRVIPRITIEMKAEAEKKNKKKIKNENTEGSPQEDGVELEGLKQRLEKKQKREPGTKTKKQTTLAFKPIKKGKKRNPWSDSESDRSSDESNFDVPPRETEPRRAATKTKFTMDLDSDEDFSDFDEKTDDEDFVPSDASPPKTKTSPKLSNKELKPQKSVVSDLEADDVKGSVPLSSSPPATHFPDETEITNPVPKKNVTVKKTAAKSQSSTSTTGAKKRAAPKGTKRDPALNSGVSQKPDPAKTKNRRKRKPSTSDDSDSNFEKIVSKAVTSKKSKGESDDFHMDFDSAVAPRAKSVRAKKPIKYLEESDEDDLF
Method: FIGS. 13(A) and (B) are blots from nuclear (nuc)-cytoplasmic (cyto) fractionation of high-density MM cells (n=2). […] Human myeloma RPMI-H929 cells were treated for 24 hours. Cells were then chemically separated into nuclear and cytoplasmic fractions.
Human myeloma cells were placed at plateau concentrations (4×10^6 cells/ml), and NES inhibitors were added at 25 μM for 20 hours. Cells were collected, washed in PBS, and fractionated by a method adapted from Li et al. (Li Y, Bor Y C, Misawa Y, Xue Y, Rekosh D, Hammarskjold M L. An intron with a constitutive transport element is retained in a Tap messenger RNA. Nature 2006; 443: 234-7). Separated fractions containing nuclei or precipitated cytosol were dissolved in 2% SDS buffer and assayed by SDS-PAGE Western blot analysis. Blots were probed with an anti-topo IIα Kis1 antibody (Millipore Corp.). […] Cells grown at log-phase concentrations were also fractionated. After MM cells were treated with NCI-9138 at 25 μM for 20 hours, CRM1-topo IIα complexes were isolated from cells by immunoprecipitation using a combination of both protein A and protein G magnetic beads according to the manufacturer's protocol (Miltenyi Biotec, Cologne, Germany). Co-immunoprecipitation was performed with 2 μg of anti-CRM1 antibody (Santa Cruz Biotechnology, Inc., Santa Cruz, Calif.). Immunoprecipitation samples were separated by SDS-PAGE, transferred to nitrocellulose membranes, and probed with anti-topo IIα Kis1 antibody (Millipore, Corp., Billerica, Mass.) and anti-mouse horseradish peroxidase secondary antibody.

WI-38 = experiment: CT-Glo cytotoxicity assay, WI-38 cells; type: cell-based; conditions: Homo sapiens, 72-h CT-Glo
Method: (§1) The molecules with the highest docking scores were assayed for IC50 values. Cultures were tested for cytotoxicity using the CellTiter-Glo assay (CT-Glo cytotoxicity assay; Promega, Madison, Wis.), a luminescence-based homogeneous method for determining the number of viable cells in culture based on quantitation of the ATP present, which signals the presence of metabolically active cells (Corsino, et al., A novel class of cyclin-dependent kinase inhibitors identified by molecular docking act through a unique mechanism. J Biol Chem 2009; 284: 29945-55; Homsi, et al., Src activation in melanoma and Src inhibitors as therapeutic agents in melanoma. Melanoma Res 2009; 19: 167-75). All cells were assayed at log-phase growth conditions. Luminescence was measured with a Synergy 4 microplate reader (Bio-Tek Instruments, Inc., Winooski, Vt.). IC50 values were determined using a sigmoidal equilibrium model regression using XLfit version 5.2 (ID Business Solutions Ltd., Surrey, UK) (Corsino, et al., A novel class of cyclin-dependent kinase inhibitors identified by molecular docking act through a unique mechanism. J Biol Chem 2009; 284: 29945-55).

Kg-1a = experiment: CT-Glo cytotoxicity assay, Kg-1a cells; type: cell-based; conditions: Homo sapiens, 72-h CT-Glo
Method: as §1

topo IIα [3] = target: T1, topo IIα; experiment: Immunofluorescence microscopy of intracellular location of topo IIα; type: cell-based; conditions: 25 μM NES inhibitor
Method: Slides were viewed with a fully automated, upright Zeiss Axio-ImagerZ.1 microscope (Carl Zeiss A G, Oberkochen, Germany). Briefly, the DAPI image was used as a mask to segment the nuclear region from the Alexa 594 image. The remaining portion of the Alexa 594 image represents the cytosol, and individual nucleus and cytosol images were analyzed.
H929 cells were mock treated with 0.1% DMSO in media or with 25 μM of NES inhibitor. The high density control cells, seen in FIG. 9(A) show high levels of topo II staining outside the nucleus, evidencing export of topo II from the nucleus.

HL-60 = experiment: CT-Glo cytotoxicity assay, HL-60 cells; type: cell-based; conditions: Homo sapiens, 72-h CT-Glo
Method: as §1

p53 = p53 nuclear export in low-density myeloma cells (nuclear fraction Western blot); type: cell-based, human; conditions: H929 at low density (log growth), 25 μM, 20 hours
Method: FIG. 14 is a blot of lead compounds tested to determine if nuclear export inhibition was specific to topo IIα protein. p53 was cycled from the nucleus into the cytoplasm in MM cells cultured at log growth conditions. Cells grown at log-phase concentrations were treated with the lead NES inhibitors (25 μM) or a leptomycin control for 20 hours and chemically fractionated. Nuclei were assayed by SDS-PAGE Western blot analysis for p53 protein (anti-p53 (DO-1), Santa Cruz Biotech, Inc). […] Lamin A/C (anti-lamin A/C, BD Pharmingen) is shown as a loading control.
Cells grown at low concentrations were treated with the lead NES inhibitors (25 μM) or a leptomycin B (5 nM) control for 20 hours and chemically fractionated. Nuclei were assayed by SDS-PAGE Western blot analysis for p53 protein.

topo IIα [4] = target: T1, topo IIα; experiment: Nuclear-cytoplasmic fractionation and Western blot for topo IIα; type: cell-based; conditions: RPMI-H929 cells, 100 μM, 24 hours, relative to untreated controls
PBMC = experiment: CT-Glo cytotoxicity assay, PBMC; type: cell-based; conditions: 72-h CT-Glo, average ± SD
Method: as §1

RPMI-8226 (8226) = experiment: CT-Glo cytotoxicity assay, 8226 cells; type: cell-based, human; conditions: Homo sapiens, RPMI-8226
Source text: Compounds identified in Example 1 as the top scoring potential inhibitors for each of the two NES (20 each) were obtained from NCI and structures of these molecules confirmed using NMR and mass spectroscopy analysis, seen in FIGS. 4(A)-(C) and 5(A)-(D). The potential inhibitors were followed up using in vitro model cell cultures. MM cell lines NCI-H929 (H929) and RPMI-8226 (8226) were obtained from and tested for authenticity by the American Type Culture Collection (Manassas, Va.). All cell lines were grown as described previously (Turner, et al., Human topoisomerase IIalpha nuclear export is mediated by two CRM-1-dependent nuclear export signals. J Cell Sci 2004; 117: 3061-71).
as §1

FLOW = experiment: CT-Glo cytotoxicity assay, FLOW cells; type: cell-based; conditions: 72-h CT-Glo, average ± SD
Method: as §1

O=C1c2ccccc2C(=O)C1C(=O)C(c1ccccc1)c1ccccc1 [NCI-9138, 2-(diphenylacetyl)-1H-indene-1,3(2H)-dione]
Sensitization of high-density MM cells to doxorubicin / synergism ([1]; 25 μM NES inhibitor, doxorubicin 2 μM): synergized with the topo II inhibitor doxorubicin | Fold-Increased sensitization to dox ([1]; dox/drug (dox 2 μM) divided by dox alone): 4.13 ± 1.83 fold | Export of topo IIα, nuclear-cytoplasmic fractionation (topo IIα [2]): strongly blocked export of topo IIα | IC50 (WI-38): 30.1 µM | IC50 (Kg-1a): 21.3 µM | Nuclear export of topo IIα by immunofluorescence (topo IIα [3]; 20 hours, high-density (plateau) MM cells): overlapping staining of topo II with DAPI | Fold-increase nuclear topo IIα (topo IIα [3]; H929 cells, nucleus v cytoplasm fluorescence vs untreated high-density controls): 2.61 fold | IC50 (HL-60): 28.3 µM | Nuclear export of p53 (p53): did not prevent export of p53 | Cytoplasmic level / nuclear localization of topo IIα, fractionation Western blot (topo IIα [4]): reduced cytoplasmic levels of topo IIα equivalent to that produced by the CRM-1 inhibitor ratjadone C | IC50 (PBMC): 32.5 µM | IC50 (RPMI-8226 (8226); 8226 cells, 72-h CT-Glo, log-phase (low-density), average ± SD, read-out: IC50): 12.7 ± 4.5 µM | IC50 (RPMI-8226 (8226); high-density cells, single agent (data not shown), read-out: IC50, viability of high-density cells): 9.4 µM | IC50 (FLOW): 31.7 µM
